Results as given in ChEMBL document CHEMBL4673209, “Discovery of a novel potent GPR40 full agonist” (Bioorg Med Chem Lett, 2018).
Activity calls are given as the source filed them. The rule behind the calls is not given here.

What was measured:
[1] = Apparent permeability across basolateral to apical side in human Caco2 cells; type: ADME, cell-based; settings: Caco-2
[2] = Cmax in rat; type: ADME; settings: in vivo
Cytochrome P450 1A2 = target: T1, Cytochrome P450 1A2 (Homo sapiens, UniProt P05177); experiment: Inhibition of CYP1A2 (unknown origin); type: ADME
T1 sequence (P05177 whole entry): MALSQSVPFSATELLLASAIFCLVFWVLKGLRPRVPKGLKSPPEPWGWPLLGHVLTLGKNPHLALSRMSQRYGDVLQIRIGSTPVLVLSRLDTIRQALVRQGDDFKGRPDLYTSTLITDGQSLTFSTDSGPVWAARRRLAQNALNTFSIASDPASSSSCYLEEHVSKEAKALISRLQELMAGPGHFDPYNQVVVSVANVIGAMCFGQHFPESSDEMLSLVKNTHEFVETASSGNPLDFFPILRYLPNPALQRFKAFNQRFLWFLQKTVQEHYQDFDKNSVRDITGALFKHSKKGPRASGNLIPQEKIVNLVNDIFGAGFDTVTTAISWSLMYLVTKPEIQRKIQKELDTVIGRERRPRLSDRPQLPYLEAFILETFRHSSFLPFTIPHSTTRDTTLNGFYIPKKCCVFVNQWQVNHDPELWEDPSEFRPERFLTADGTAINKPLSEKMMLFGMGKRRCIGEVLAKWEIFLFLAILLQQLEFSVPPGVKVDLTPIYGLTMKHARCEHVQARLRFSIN

[3] = Volume of distribution at steady state in dog; type: ADME, Canis lupus familiaris; settings: in vivo, read-out: Vdss
[4] = Protein binding in rat plasma; type: ADME, cell-free; settings: read-out: PPB (converted)
[5] = target: Free fatty acid receptor 1 (Rattus norvegicus) (UniProt Q8K3T4); experiment: Agonist activity at rat GPR40 receptor expressed in CHOK1 cells assessed as induction of IP1 accumulation at 10 uM relative to TAK875; type: functional, cell-based; settings: CHO-K1, filed as agonist
Chain of Free fatty acid receptor 1 (Rattus norvegicus) (Q8K3T4 whole entry): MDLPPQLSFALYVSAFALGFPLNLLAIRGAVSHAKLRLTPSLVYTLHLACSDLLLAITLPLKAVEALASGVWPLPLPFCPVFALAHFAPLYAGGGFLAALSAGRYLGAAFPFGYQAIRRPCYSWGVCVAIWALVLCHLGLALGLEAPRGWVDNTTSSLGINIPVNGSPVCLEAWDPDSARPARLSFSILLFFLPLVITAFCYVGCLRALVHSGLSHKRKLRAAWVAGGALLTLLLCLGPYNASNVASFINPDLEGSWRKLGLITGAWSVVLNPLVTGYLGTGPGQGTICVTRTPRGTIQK

Rattus norvegicus [6] = experiment: Anti-glycemic activity in fasted Sprague-Dawley ZDF rat assessed as reduction in post-prandial hyperglycemia by measuring AUC(0 to 2 hrs) for blood glucose at 10 mg/kg administered daily for 8 days and measured on day 8 by OGTT; type: functional; settings: time 8 day
[7] = Clearance in rat; type: ADME; settings: in vivo
[8] = Intrinsic clearance in rat assessed as half-life at 1 uM; type: ADME
[9] = target: T2, Free fatty acid receptor 1 (Homo sapiens, UniProt O14842); experiment: Agonist activity at human GPR40 receptor expressed in CHOK1 cells assessed as induction of IP1 accumulation at 10 uM relative to TAK875; type: functional, cell-based; settings: CHO-K1, filed as agonist
T2 sequence (O14842 whole entry): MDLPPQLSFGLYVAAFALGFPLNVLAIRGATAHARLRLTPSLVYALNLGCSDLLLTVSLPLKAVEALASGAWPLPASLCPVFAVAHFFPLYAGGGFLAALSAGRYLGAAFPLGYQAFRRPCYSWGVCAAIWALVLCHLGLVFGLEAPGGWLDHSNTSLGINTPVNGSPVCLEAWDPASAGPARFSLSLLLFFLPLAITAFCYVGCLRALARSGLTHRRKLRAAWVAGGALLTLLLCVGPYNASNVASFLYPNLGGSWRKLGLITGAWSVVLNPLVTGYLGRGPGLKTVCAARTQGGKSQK

[10] = Clearance in cynomolgus monkey; type: ADME, Macaca fascicularis; settings: in vivo
[11] = target: Free fatty acid receptor 1 (Rattus norvegicus) (UniProt Q8K3T4); experiment: Agonist activity at rat GPR40 receptor expressed in CHOK1 cells assessed as induction of IP1 accumulation at 10 uM; type: functional, cell-based; settings: CHO-K1, filed as agonist
[12] = Intrinsic clearance in human assessed as half-life at 1 uM; type: ADME
Cytochrome P450 3A4 = Cytochrome P450 3A4 (Homo sapiens, UniProt P08684); experiment: Inhibition of CYP3A4 (unknown origin) using testosterone as substrate; type: ADME
Chain of Cytochrome P450 3A4 (P08684 whole entry): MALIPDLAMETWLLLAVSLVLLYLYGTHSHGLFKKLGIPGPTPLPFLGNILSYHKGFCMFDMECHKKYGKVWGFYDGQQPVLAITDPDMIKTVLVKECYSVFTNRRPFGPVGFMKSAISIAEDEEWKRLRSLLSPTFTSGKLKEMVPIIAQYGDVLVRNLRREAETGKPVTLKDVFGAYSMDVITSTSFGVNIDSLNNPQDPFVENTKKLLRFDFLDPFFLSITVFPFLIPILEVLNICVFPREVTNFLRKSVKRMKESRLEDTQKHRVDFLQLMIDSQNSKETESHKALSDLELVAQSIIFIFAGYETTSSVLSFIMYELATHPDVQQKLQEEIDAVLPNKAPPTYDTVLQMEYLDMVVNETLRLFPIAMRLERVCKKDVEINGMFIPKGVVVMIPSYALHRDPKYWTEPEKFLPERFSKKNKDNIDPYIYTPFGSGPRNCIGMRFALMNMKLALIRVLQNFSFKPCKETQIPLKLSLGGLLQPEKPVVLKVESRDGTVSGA

[13] = target: Free fatty acid receptor 1 (Rattus norvegicus) (UniProt Q8K3T4); experiment: Agonist activity at GPR40 in rat INS1 (832/13) cells assessed as induction of glucose-stimulated insulin secretion in presence of 10 mM glucose; type: cell-based; settings: INS-1 832/13, filed as agonist
[14] = Apparent permeability across apical to basolateral side in human Caco2 cells; type: ADME, cell-based; settings: Caco-2
Rattus norvegicus [15] = experiment: Anti-glycemic activity in fasted Sprague-Dawley ZDF rat assessed as increase in insulin secretion by measuring insulin level in plasma at 3 mg/kg administered 30 mins prior to glucose challenge measured after 140 mins by OGTT; type: functional; settings: time 170 min, 2.833 h
Rattus norvegicus [16] = experiment: Anti-glycemic activity in fasted Sprague-Dawley ZDF rat assessed as increase in insulin secretion by measuring insulin level in plasma at 1 mg/kg administered 30 mins prior to glucose challenge measured after 140 mins by OGTT; type: functional; settings: time 170 min, 2.833 h
[17] = target: T3, Free fatty acid receptor 1 (Rattus norvegicus, UniProt Q8K3T4); experiment: Agonist activity at rat GPR40 transfected in HEK293 cells assessed as increase in intracellular calcium level incubated for 1 hr by Fluo-8 dye based fluorescence analysis; type: functional, cell-based
T3 sequence (Q8K3T4 whole entry): as the sequence (Q8K3T4 whole entry) above

[18] = target: T3, Free fatty acid receptor 1; experiment: Agonist activity at rat GPR40 receptor expressed in CHOK1 cells assessed as induction of IP1 accumulation; type: functional, cell-based, CHO-K1
Mus musculus [19] = species: Mus musculus; experiment: Anti-glycemic activity in GPR40 knockout mouse assessed as reduction in blood glucose excursion measured for 120 mins by IPGTT; type: functional, organism-based
[20] = Oral bioavailability in rat; type: ADME, organism-based; settings: in vivo
[21] = target: T4, Peroxisome proliferator-activated receptor delta (Homo sapiens) (UniProt Q03181); experiment: Agonist activity at PPARbeta (unknown origin)
T4 sequence (whole entry): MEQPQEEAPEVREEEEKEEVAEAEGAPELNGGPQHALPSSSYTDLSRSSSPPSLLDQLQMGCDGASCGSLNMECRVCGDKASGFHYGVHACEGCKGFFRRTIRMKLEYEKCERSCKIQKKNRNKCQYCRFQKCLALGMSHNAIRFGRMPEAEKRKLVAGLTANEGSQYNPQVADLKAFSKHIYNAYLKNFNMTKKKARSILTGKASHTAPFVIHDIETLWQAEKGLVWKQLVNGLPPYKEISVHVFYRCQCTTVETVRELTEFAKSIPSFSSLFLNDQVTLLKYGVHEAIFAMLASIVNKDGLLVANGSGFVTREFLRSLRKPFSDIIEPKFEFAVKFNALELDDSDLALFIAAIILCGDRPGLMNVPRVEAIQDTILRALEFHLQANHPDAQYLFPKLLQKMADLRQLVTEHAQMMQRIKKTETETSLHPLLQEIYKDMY

[22] = target: Free fatty acid receptor 1 (Mus musculus, UniProt Q76JU9); experiment: Agonist activity at mouse GPR40 assessed as increase in intracellular calcium level; type: functional, cell-based
Chain of Free fatty acid receptor 1 (Mus musculus, UniProt Q76JU9) (Q76JU9 whole entry): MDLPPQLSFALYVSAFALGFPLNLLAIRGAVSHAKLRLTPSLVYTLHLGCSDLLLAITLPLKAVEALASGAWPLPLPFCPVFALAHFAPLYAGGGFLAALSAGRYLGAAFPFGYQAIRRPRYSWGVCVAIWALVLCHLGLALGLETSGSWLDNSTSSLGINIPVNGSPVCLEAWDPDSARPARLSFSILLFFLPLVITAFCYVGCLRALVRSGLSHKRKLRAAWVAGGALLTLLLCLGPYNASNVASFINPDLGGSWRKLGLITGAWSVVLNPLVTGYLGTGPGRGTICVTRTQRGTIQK

[23] = Hepatic clearance in rat; type: ADME; settings: in vivo
[24] = Half life in iv dosed cynomolgus monkey; type: ADME, organism-based, Macaca fascicularis; settings: in vivo
Mus musculus [25] = species: Mus musculus; experiment: Anti-glycemic activity in C57 mouse assessed as reduction in blood glucose excursion measured for 120 mins by IPGTT; type: functional, organism-based
[26] = Protein binding in cynomolgus monkey plasma; type: ADME, cell-free, Macaca fascicularis; settings: read-out: PPB (converted)
Mus musculus [27] = experiment: Induction of GLP-1 secretion in GPR40 knock-out mouse at 100 mg/kg; type: functional, organism-based
[28] = target: T2, Free fatty acid receptor 1; experiment: Agonist activity at human GPR40 transfected in HEK293 cells assessed as increase in intracellular calcium level incubated for 1 hr by Fluo-8 dye based fluorescence analysis; type: functional, cell-based; settings: hek293
[29] = Protein binding in dog plasma; type: ADME, cell-free, Canis lupus familiaris; settings: read-out: PPB (converted)

SMILES: COc1cc(-c2ncc(COc3cccc([C@@H](CC(=O)O)C4CC4)c3)nc2CC(C)C)c(F)cn1
- Papp B→A [1]: 40 ×10⁻⁶ cm/s
- Cmax [2]: 9720 ng/mL
- IC50 (Cytochrome P450 1A2): > 10000 nM
- Vd [3]: 1.62 L/kg
- fraction unbound [4]: 0.0009
- Activity [5]: 167%
- Activity (Rattus norvegicus [6]): 51024 ng/mL.hr
- clearance [7]: 2.37 mL/min/kg
- half-life at 1 µM [8]: 0.8 h
- Activity [9]: 354%
- clearance [10]: 2.19 mL/min/kg
- Activity [11]: 572 nM
- half-life at 1 µM [12]: 1.72 h
- IC50 (Cytochrome P450 3A4): > 10000 nM
- Activity [13]: Active
- Papp A→B [14]: 40 ×10⁻⁶ cm/s
- Activity (Rattus norvegicus [15]): 5275 ng/mL
- Activity (Rattus norvegicus [16]): 1405 ng/mL
- EC50 [17]: 17 nM
- EC50 [18]: 547 nM
- Activity (Mus musculus [19]): inactive
- bioavailability [20]: 123%
- Activity [21]: inactive
- EC50 [22]: 38 nM
- CLH [23]: 26.8 mL/min/kg
- half-life [24]: 11.2 h
- Activity (Mus musculus [25]): Active
- fraction unbound [26]: 0.0009
- Activity (Mus musculus [27]): inactive
- EC50 [28]: 2 nM
- fraction unbound [29]: 0.0045
